In EP2061765B1, “Serine-threonine protein kinase and PARP modulators” (Senhwa Biosciences, Inc., priority 2006, dated 2008):

Columns and labels:
Assay in all cases: Cell proliferation assay (Alamar Blue)
Type in all cases: cell-based
MDAMB231 = settings: Homo sapiens, MDA-MB-231, 96 h, MDAMB231 cells, four days
Method: (§1) A representative cell-proliferation assay protocol using Alamar Blue dye (stored at 4°C, use 20ul per well) is described hereafter. 96-well plate setup and compound treatment • a. Split and trypsinize cells. • b. Count cells using hemocytometer. • c. Plate 4,000-5,000 cells per well in 100 µl of medium and seed into a 96-well plate according to the following plate layout. Add cell culture medium only to wells B10 to B12. Wells B1 to B9 have cells but no compound added. [formula] [formula] • d. Add 100 µl of 2X drug dilution to each well in a concentration shown in the plate layout above. At the same time, add 100 µl of media into the control wells (wells B10 to B12). Total volume is 200 µl/well. • e. Incubate four (4) days at 37°C, 5% CO2 in a humidified incubator. • f. Add 20µl Alamar Blue reagent to each well. • g. Incubate for four (4) hours at 37°C, 5% CO2 in a humidified incubator. • h. Record fluorescence at an excitation wavelength of 544nm and emission wavelength of 590nm using a microplate reader.
(§2) In the assays, cells are cultured with a test compound for approximately four days, the dye then is added to the cells and fluorescence of […] dye is detected after approximately four hours. Different types of cells can be utilized in the assays (e.g., HCT-116 human colorectal carcinoma cells, PC-3 human prostatic cancer cells and MiaPaca human pancreatic carcinoma cells). Anti-proliferative effects of representative compounds are provided hereafter.

BxPC3 = settings: Homo sapiens, BXPC-3, 96 h, BxPC3 cells, four days
Method: as §1, §2

PanC1 = settings: Homo sapiens, PANC-1, 96 h, PanC1 cells, four days
Method: as §1, §2

Row | Compound | IC50 (MDAMB231) | IC50 (BxPC3) | IC50 (PanC1)
1 | O=C(O)c1ccc2c(c1)nc(Nc1cc(F)cc(F)c1)c1nc(NC3CC3)ncc12 [drawing 429] | 23 µM | – | –
2 | O=C(O)c1ccc2c(c1)nc(Nc1cccc(F)c1)c1nc(NC3CC3)ncc12 [drawing 430] | 12.8 µM | – | –
3 | COc1cccc(Nc2nc3cc(C(=O)O)ccc3c3cnc(NC4CC4)nc23)c1 [drawing 431] | 20.1 µM | – | –
4 | CN(C)CCNc1ncc2c(n1)c(Nc1ccc(F)c(Cl)c1)nc1cc(C(=O)O)ccc12 [drawing 432] | > 50 µM | – | –
5 | O=C(O)c1ccc2c(c1)nc(Nc1ccc(F)c(Cl)c1)c1nc(NCc3ccccn3)ncc12 [drawing 433] | 33.7 µM | – | –
6 | COC(CNc1ncc2c(n1)c(Nc1ccc(F)c(Cl)c1)nc1cc(C(=O)O)ccc12)OC [drawing 434] | 25.4 µM | – | –
7 | NC(=O)c1ccc2c(c1)nc(Nc1cccc(C(F)(F)F)c1)c1nc(NC3CC3)ncc12 [drawing 435] | > 50 µM | – | –
8 | O=C(NC1CC1)c1ccc2c(c1)nc(Nc1cccc(C(F)(F)F)c1)c1nc(NC3CC3)ncc12 [drawing 436] | 39.8 µM | – | –
9 | CNC(=O)c1ccc2c(c1)nc(Nc1cccc(C(F)(F)F)c1)c1nc(NC3CC3)ncc12 [drawing 437] | 10.5 µM | – | –
10 | O=C(O)c1ccc2c(c1)nc(Nc1ccc(F)c(Cl)c1)c1nc(NCc3cccnc3)ncc12 [drawing 438] | 5.48 µM | – | –
11 | O=C(O)c1ccc2c(c1)nc(Nc1ccc(F)c(Cl)c1)c1nc(NCc3ccncc3)ncc12 [drawing 439] | 12.1 µM | – | –
12 | O=C(O)c1ccc2c(c1)nc(Nc1ccccc1)c1nc(Nc3ccccc3)ncc12 [drawing 440] | 19.2 µM | – | –
13 | CC(C)OC(=O)Nc1ccc2c(c1)nc(Nc1cccc(C(F)(F)F)c1)c1nc(NC3CC3)ncc12 [drawing 441] | 4.27 µM | – | –
14 | CCOC(=O)CCNC(=O)c1ccc2c(c1)nc(Nc1cccc(C(F)(F)F)c1)c1nc(NC3CC3)ncc12 [drawing 442] | 2.52 µM | – | –
15 | O=C(O)c1ccc2c(c1)nc(Nc1ccc(F)c(Cl)c1)c1ncncc12 [drawing 445] | – | 3.55 µM | 3.37 µM
16 | Fc1cccc(Nc2nc3cc(-c4nnn[nH]4)ccc3c3cnccc23)c1 [drawing 453] | – | – | > 50 µM
17 | Fc1cc(Nc2nc3cc(-c4nnn[nH]4)ccc3c3cnccc23)ccc1Cl [drawing 454] | – | – | > 50 µM
18 | Clc1cccc(Nc2nc3cc(-c4nnn[nH]4)ccc3c3cnccc23)c1 [drawing 458] | – | – | > 50 µM
19 | O=C(O)c1ccc2c(c1)nc(Nc1ccccc1)c1nc(NC3CC3)ncc12 [drawing 461] | – | 2.16 µM | 5.02 µM
20 | CCCNc1ncc2c(n1)c(Nc1ccccc1)nc1cc(C(=O)O)ccc12 [drawing 462] | – | 5.83 µM | 4.28 µM
21 | COCCNc1ncc2c(n1)c(Nc1ccccc1)nc1cc(C(=O)O)ccc12 [drawing 463] | – | 3.92 µM | 32.6 µM
22 | O=C(O)c1ccc2c(c1)nc(Nc1ccccc1)c1nc(NCCO)ncc12 [drawing 464] | – | 23.5 µM | > 50 µM

Row | Compound | IC50 (MDAMB231) | IC50 (BxPC3) | IC50 (PanC1)
23 | O=C(O)c1ccc2c(c1)nc(Nc1ccccc1)c1nc(NCCCO)ncc12 [drawing 465] | – | 9.41 µM | 34.2 µM
24 | O=C(O)c1ccc2c(c1)nc(Nc1ccccc1)c1nc(NC3CCNCC3)ncc12 [drawing 466] | – | 8.36 µM | > 50 µM
25 | CCN(CC)CCNc1ncc2c(n1)c(Nc1ccccc1)nc1cc(C(=O)O)ccc12 [drawing 467] | – | 10.7 µM | > 50 µM
26 | O=C(O)c1ccc2c(c1)nc(Nc1ccccc1)c1nc(NCCN3CCOCC3)ncc12 [drawing 468] | – | 4.67 µM | 27.4 µM
27 | O=C(O)c1ccc2c(c1)nc(Nc1ccccc1)c1nc(NCCCN3CCOCC3)ncc12 [drawing 469] | – | 1.65 µM | > 50 µM
28 | C#Cc1cccc(Nc2nc3cc(C(=O)O)ccc3c3cnc(NC4CC4)nc23)c1 [drawing 470] | – | 1.05 µM | 5.79 µM
29 | C#Cc1cccc(Nc2nc3cc(C(=O)O)ccc3c3cnc(NCCC)nc23)c1 [drawing 471] | – | 3 µM | 8.12 µM
30 | C#Cc1cccc(Nc2nc3cc(C(=O)O)ccc3c3cnc(NCCOC)nc23)c1 [drawing 472] | – | 1.17 µM | 4.61 µM
31 | C#Cc1cccc(Nc2nc3cc(C(=O)O)ccc3c3cnc(NC4CCNCC4)nc23)c1 [drawing 473] | – | 25.3 µM | > 50 µM
32 | C#Cc1cccc(Nc2nc3cc(C(=O)O)ccc3c3cnc(NCCCN4CCOCC4)nc23)c1 [drawing 474] | – | 3.6 µM | 11.2 µM
33 | C#Cc1cccc(Nc2nc3cc(C(=O)O)ccc3c3cnc(NC)nc23)c1 [drawing 475] | – | 1.6 µM | 13.8 µM
34 | O=C(O)c1ccc2c(c1)nc(Nc1ccc(Cl)c(C(F)(F)F)c1)c1ccncc12 [drawing 476] | – | 2.6 µM | 17.9 µM
35 | O=C(O)c1ccc2c(c1)nc(Nc1cccc(Cl)c1)c1nc(NC3CC3)ncc12 [drawing 477] | – | 1.95 µM | 4.61 µM
36 | O=C(O)c1ccc2c(c1)nc(Nc1cccc(C(F)(F)F)c1)c1ncncc12 [drawing 478] | – | 4.31 µM | 35.2 µM
37 | CCOc1ncc2c(n1)c(Nc1cccc(C(F)(F)F)c1)nc1cc(C(=O)O)ccc12 [drawing 479] | – | 49.6 µM | > 50 µM
38 | CNc1ncc2c(n1)c(Nc1cccc(Cl)c1)nc1cc(C(=O)O)ccc12 [drawing 480] | – | 2.56 µM | 8.3 µM
39 | CN(C)c1ncc2c(n1)c(Nc1cccc(Cl)c1)nc1cc(C(=O)O)ccc12 [drawing 481] | – | 42.7 µM | > 50 µM
40 | Nc1ncc2c(n1)c(Nc1cccc(Cl)c1)nc1cc(C(=O)O)ccc12 [drawing 482] | – | 0.61 µM | 3.62 µM
41 | CC(C)Nc1ncc2c(n1)c(Nc1cccc(Cl)c1)nc1cc(C(=O)O)ccc12 [drawing 483] | – | 36.9 µM | 33.2 µM
42 | O=C(O)c1ccc2c(c1)nc(Nc1cccc(C(F)(F)F)c1)c1nc(NC3CC3)ncc12 [drawing 484] | – | 10 µM | 2.03 µM
43 | CCNc1ncc2c(n1)c(Nc1cccc(Cl)c1)nc1cc(C(=O)O)ccc12 [drawing 485] | – | 2.37 µM | 1.61 µM
44 | CNc1ncc2c(n1)c(Nc1ccc(F)c(Cl)c1)nc1cc(C(=O)O)ccc12 [drawing 486] | – | 1.46 µM | > 50 µM

Row | Compound | IC50 (MDAMB231) | IC50 (BxPC3) | IC50 (PanC1)
45 | Nc1ncc2c(n1)c(Nc1ccc(F)c(Cl)c1)nc1cc(C(=O)O)ccc12 [drawing 487] | – | 0.7 µM | 8.03 µM
46 | O=C(O)c1ccc2c(c1)nc(Nc1ccc(F)c(Cl)c1)c1nc(NC3CC3)ncc12 [drawing 488] | – | 9.48 µM | 8.53 µM
47 | COCCNc1ncc2c(n1)c(Nc1ccc(F)c(Cl)c1)nc1cc(C(=O)O)ccc12 [drawing 489] | – | 1.61 µM | > 50 µM
48 | C#Cc1cccc(Nc2nc3cc(C(=O)O)ccc3c3cnc(NCCOCC)nc23)c1 [drawing 490] | – | 0.69 µM | 2.41 µM
49 | C#Cc1cccc(Nc2nc3cc(C(=O)O)ccc3c3cnc(NCCCOCC)nc23)c1 [drawing 491] | – | 0.48 µM | 1.04 µM
50 | C#Cc1cccc(Nc2nc3cc(C(=O)O)ccc3c3cnc(NCCCOC(C)C)nc23)c1 [drawing 492] | – | 0.97 µM | 3.1 µM
51 | O=C(O)c1ccc2c(c1)nc(Nc1cccc(Cl)c1)c1nc(O)ncc12 [drawing 493] | – | 15.8 µM | > 50 µM
52 | Cc1ncc2c(n1)c(Nc1cccc(Cl)c1)nc1cc(C(=O)O)ccc12 [drawing 494] | – | 8.88 µM | > 50 µM
53 | C#Cc1cccc(Nc2nc3cc(C(=O)OC)ccc3c3cnc(NOC)nc23)c1 [drawing 495] | – | 40 µM | > 50 µM
54 | COC(=O)c1ccc2c(c1)nc(Nc1cccc(Cl)c1)c1nc(NCCC(N)=O)ncc12 [drawing 496] | – | 2.62 µM | 25.5 µM
55 | NC(=O)CCNc1ncc2c(n1)c(Nc1cccc(Cl)c1)nc1cc(C(=O)O)ccc12 [drawing 497] | – | 20.9 µM | > 50 µM
56 | O=C(O)CCNc1ncc2c(n1)c(Nc1cccc(Cl)c1)nc1cc(C(=O)O)ccc12 [drawing 498] | – | 43.5 µM | > 50 µM
57 | Cc1cccc(Nc2nc3cc(C(=O)O)ccc3c3cnccc23)c1 [drawing 499] | – | 2.23 µM | 38 µM
58 | O=C(O)c1ccc2c(c1)nc(Nc1cccc(C(F)(F)F)c1)c1ccncc12 [drawing 500] | – | 2.6 µM | 27.2 µM
59 | O=C(O)c1ccc2c(c1)nc(Nc1cc(F)cc(F)c1)c1nc(NC3CC3)ncc12 [drawing 501] | – | 14.9 µM | 16.1 µM
60 | O=C(O)c1ccc2c(c1)nc(Nc1cccc(F)c1)c1nc(NC3CC3)ncc12 [drawing 502] | – | 9.89 µM | 2.81 µM
61 | COc1cccc(Nc2nc3cc(C(=O)O)ccc3c3cnc(NC4CC4)nc23)c1 [drawing 503] | – | 8.68 µM | 3.48 µM
62 | CN(C)CCNc1ncc2c(n1)c(Nc1ccc(F)c(Cl)c1)nc1cc(C(=O)O)ccc12 [drawing 504] | – | 1.52 µM | 44.9 µM
63 | O=C(O)c1ccc2c(c1)nc(Nc1ccc(F)c(Cl)c1)c1nc(NCc3ccccn3)ncc12 [drawing 505] | – | 11.1 µM | > 50 µM
64 | O=C(O)c1ccc2c(c1)nc(Nc1ccc(F)c(Cl)c1)c1nc(NCc3ccncc3)ncc12 [drawing 511] | – | 7.33 µM | –
